Reference: patent publication US9983218B2, “Indole and indoline derivatives and methods of use thereof” (AbbVie Inc., priority 2008, dated 2018)

Test system: SK-N-SH human neuroblastoma cells
Experiment: Serum deprivation/JC-1 mitochondrial membrane potential (MMP) assay
Type: cell-based
Conditions: Homo sapiens; for Emax: SK-N-SH, percent maximal intensity in JC-1 ratio normalized to 10 μM dimebolin, read-out: JC-1 max %; for EC50: SK-N-SH cells, serum deprivation ~18 hours, JC-1 ratio normalized to peak value for 10 μM dimebolin, single curve fit to mean data of n=2-3, read-out: EC50
Procedure: SK-N-SH human neuroblastoma cells obtained from American Type Culture Collection (Rockville, Md.) were maintained in the log phase of growth in Minimal Essential Media (MEM), 10% heat inactivated fetal calf serum and 100 units/mL antibiotic-antimycotic (AA). Cells were cultured and maintained in a humidified incubator at 37° C. under 5% CO2 and 95% air. Cells were trypsinized (0.25%) and subcultured every 3 days and used from 15-18 passages. All cell culture supplies were obtained from Invitrogen (Carlsbad, Calif.).
SK-N-SH cells were plated 2-3 days in advance at a concentration of 50,000 cells/well onto collagen coated black-walled 96 well plates (Becton-Dickinson, Bedford, Mass.) in a total volume of 200 μL. On day of experimental treatment, the media containing serum was aspirated from each well and rinsed once with MEM/1% AA without serum. The cells then were incubated overnight in 100 μL of MEM/1% AA (no serum) with and without dimebolin or novel chemical entities overnight for ˜18 hours. The following day, JC-1 dye (5,5′,6,6′-tetrachloro-1,1′,3,3′-tetraethylbenzimidazolcarbocyanide) was diluted 1:10 into MEM media according to the JC-1 Mitochondrial Membrane Potential Assay Kit: (Cayman Chemical Company, Ann Arbor, Mich.) and then 10 μL of the JC-1 dye solution was added to each well. The plates were centrifuged for 5 minutes at 400×g at room temperature followed by 35 minute incubation at 37° C. The plates were washed twice with 200[…] μL of provided Assay Buffer followed an addition of 100 μL of Assay Buffer to each well. The plates were read with an excitation and emission of 560 nm and 595 nM for red fluorescence and with an excitation and emission of 485 nm and 535 nM for green fluorescence to determine the final JC-1 value taking the red to green fluorescence ratio. This assay is based on change in mitochondrial membrane potential (MMP) using this lipophilic cationic dye, JC-1, by monitoring the changes in the ratio of red to green fluorescence as the MMP depolarizes. This change in MMP reflects the health of the cell with healthy, viable cells have a high JC-1 ratio and high MMP whereas apoptotic, unhealthy cells have a low JC-1 ratio or low MMP.
For the ability of compounds to reverse the stress due to serum deprivation and increase the JC-1 ratio, the percent maximal intensity in JC-1 ratio was normalized to that induced by the peak value for 10 μM dimebolin and plotted against the compound concentration to calculate EC50 values and to control for plate-to-plate variability. Concentration-response data were analyzed using GraphPad Prism (San Diego, Calif.); the EC50 values were derived from a single curve fit to the mean data of n=2-3, in duplicates.
All compounds were dissolved in dimethyl sulfoxide at 10 mM stock solutions and tested at a concentration that the dimethyl sulfoxide levels never exceeded 1%.

SMILES | Emax [%] | EC50 [µM]
Cc1ccc2c(c1)[C@H]1[C@H]3CC4C[C@H](CN(C4)C3)[C@H]1N2CCc1ccc(C)nc1 (relative stereo) [Example 194, (1R*,7R*,7aS*,12bR*)-11-methyl-8-[2-(6-methylpyridin-3-yl)ethyl]-1,4,5,6,7,7a,8,12b-octahydro-2H-1,5:3,7-dimethanoazonino[5,4-b]indole] | 321 | 2.18
Cc1ccc2c(c1)[C@@H]1[C@@H](C3CCN1CC3)N2CCc1ccc(C)nc1 (relative stereo) [Example 213, (4aR*,9bR*)-8-methyl-5-[2-(6-methylpyridin-3-yl)ethyl]-2,3,4,4a,5,9b-hexahydro-1,4-ethanopyrido[3,2-b]indole] | 177 | 5.43
Cc1ccc(/C=C\n2c3c(c4cc(C)ccc42)[C@@H]2CC[C@H](C3)N2C)cc1 (single isomer, unassigned) [Example 61] | 211 | 4.37
COc1ccc2c(c1)c1c(n2CCc2ccc(Cl)cc2)C[C@@H]2CC[C@H]1N2C (single isomer, unassigned) [Example 93] | 186 | 4.81
CC(C)c1ccc2c(c1)c1c(n2CCc2ccc(Cl)cc2)C[C@H]2CC[C@@H]1N2C (single isomer, unassigned) [Example 100] | 140 | 3.63
Cc1ccc2c(c1)c1c(n2CCc2ccc(C)nc2)C[C@H]2CCC[C@@H]1N2 (single isomer, unassigned) [Example 120] | 197 | 3.4
Cc1ccc2c(c1)c1c(n2CCc2ccc(C)nc2)C[C@@H]2CCC[C@H]1N2 (single isomer, unassigned) [Example 121] | 129 | 3.63
Cc1ccc2c(c1)c1c(n2CCc2ccccc2C)C[C@H]2CCC[C@@H]1N2 (single isomer, unassigned) [Example 127] | 151 | 3.69
Cc1ccc2c(c1)[C@@H]1CN3CCC(CC3)[C@@H]1N2CCc1ccc(C)nc1 (single isomer, unassigned) [Example 159] | 240 | 2.67
Cc1ccc2c(c1)[C@H]1CN3CCC(CC3)[C@H]1N2CCc1ccc(C)nc1 (single isomer, unassigned) [Example 160] | 194 | 1.61
O=c1ccnc2ccc(-n3c4c(c5ccccc53)[C@H]3CC[C@@H](C4)N3)cn12 (single isomer, unassigned) [Example 283] | 170 | 6.02
O=c1ccnc2ccc(-n3c4c(c5ccccc53)[C@@H]3CC[C@H](C4)N3)cn12 (single isomer, unassigned) [Example 284] | 108 | 7.62
Cc1ccc2c(c1)c1c(n2-c2ccc(-c3ccc(I)cc3)nn2)CC2CCC1N2C (stereo not drawn) [Example 3, 5-[6-(4-iodophenyl)pyridazin-3-yl]-2,11-dimethyl-5,6,7,8,9,10-hexahydro-7,10-epiminocyclohepta[b]indole] | 191 | 5.11
CCN1C2CCC1c1c(n(CCc3ccc(C)nc3)c3ccc(C)cc13)C2 (stereo not drawn) [Example 12, 11-ethyl-2-methyl-5-[2-(6-methylpyridin-3-yl)ethyl]-5,6,7,8,9,10-hexahydro-7,10-epiminocyclohepta[b]indole] | 181 | 5.58
Cc1ccc2c(c1)c1c(n2CCc2ccc(C)nc2)CC2CCC1N2CC(F)(F)F (stereo not drawn) [Example 14, 2-methyl-5-[2-(6-methylpyridin-3-yl)ethyl]-11-(2,2,2-trifluoroethyl)-5,6,7,8,9,10-hexahydro-7,10-epiminocyclohepta[b]indole] | 110 | 4.79
CCOC(=O)N1[C@H]2CC[C@@H]1c1c(n(CCc3ccc(C)nc3)c3ccc(C)cc13)C2 [Example 16, ethyl (7S,10R)-2-methyl-5-[2-(6-methylpyridin-3-yl)ethyl]-5,6,7,8,9,10-hexahydro-7,10-epiminocyclohepta[b]indole-11-carboxylate] | 129 | 8.38
Cc1ccc2c(c1)c1c(n2CCc2ccc(C)nc2)CC2CCC1N2C(=O)c1ccc(Cl)cc1 (stereo not drawn) [Example 17, 11-(4-chlorobenzoyl)-2-methyl-5-[2-(6-methylpyridin-3-yl)ethyl]-5,6,7,8,9,10-hexahydro-7,10-epiminocyclohepta[b]indole] | 345 | 3.53
Cc1ccc2c(c1)c1c(n2CCc2ccc(C)nc2)CC2CCC1N2S(=O)(=O)c1ccc(C(F)(F)F)cc1 (stereo not drawn) [Example 18, 2-methyl-5-[2-(6-methylpyridin-3-yl)ethyl]-11-{[4-(trifluoromethyl)phenyl]sulfonyl}-5,6,7,8,9,10-hexahydro-7,10-epiminocyclohepta[b]indole] | 307 | 3.19
Cc1ccc2c(c1)c1c(n2/C=C/c2ccc(C)nc2)C[C@@H]2CC[C@H]1N2C [Example 23, (7S,10R)-2,11-dimethyl-5-[(E)-2-(6-methylpyridin-3-yl)vinyl]-5,6,7,8,9,10-hexahydro-7,10-epiminocyclohepta[b]indole] | 332 | 3.32
Cc1ccc2c(c1)c1c(n2/C=C\c2ccc(C)nc2)C[C@@H]2CC[C@H]1N2C [Example 24, (7S,10R)-2,11-dimethyl-5-[(Z)-2-(6-methylpyridin-3-yl)vinyl]-5,6,7,8,9,10-hexahydro-7,10-epiminocyclohepta[b]indole] | 221 | 2.26
Cc1ccc2c(c1)c1c(n2CCc2cnc(C)nc2)C[C@@H]2CC[C@H]1N2C [Example 32, (7S,10R)-2,11-dimethyl-5-[2-(2-methylpyrimidin-5-yl)ethyl]-5,6,7,8,9,10-hexahydro-7,10-epiminocyclohepta[b]indole] | 53 | 17.3
Cc1ccc2c(c1)c1c(n2CCc2ccc(C)nn2)C[C@H]2CC[C@@H]1N2C [Example 33, (7R,10S)-2,11-dimethyl-5-[2-(6-methylpyridazin-3-yl)ethyl]-5,6,7,8,9,10-hexahydro-7,10-epiminocyclohepta[b]indole] | 97 | 5.81
Cc1ccc2c(c1)c1c(n2CCc2cnc(C)cn2)C[C@H]2CC[C@@H]1N2C [Example 34, (7R,10S)-2,11-dimethyl-5-[2-(5-methylpyrazin-2-yl)ethyl]-5,6,7,8,9,10-hexahydro-7,10-epiminocyclohepta[b]indole] | 175 | 18.1
Cc1ccc2c(c1)c1c(n2CCc2scnc2C)CC2CCC1N2C (stereo not drawn) [Example 35, 2,11-dimethyl-5-[2-(4-methyl-1,3-thiazol-5-yl)ethyl]-5,6,7,8,9,10-hexahydro-7,10-epiminocyclohepta[b]indole] | 78 | 6.71
Cc1ccc2c(c1)c1c(n2CCc2ccccc2F)CC2CCC1N2C (stereo not drawn) [Example 43, 5-[2-(2-fluorophenyl)ethyl]-2,11-dimethyl-5,6,7,8,9,10-hexahydro-7,10-epiminocyclohepta[b]indole] | 202 | 7.64
Cc1ccc2c(c1)c1c(n2CCc2ccc(Cl)cc2)C[C@H]2CC[C@@H]1N2C [Example 44, (7R,10S)-5-[2-(4-chlorophenyl)ethyl]-2,11-dimethyl-5,6,7,8,9,10-hexahydro-7,10-epiminocyclohepta[b]indole] | 291 | 3.31
Cc1ccc(/C=C/n2c3c(c4cc(C)ccc42)[C@@H]2CC[C@H](C3)N2C)cc1 [Example 59, (7R,10S)-2,11-dimethyl-5-[(E)-2-(4-methylphenyl)vinyl]-5,6,7,8,9,10-hexahydro-7,10-epiminocyclohepta[b]indole] | 202 | 4.14
Cc1ccc2c(c1)c1c(n2CCOc2ccc(F)cc2)CC2CCC1N2C (stereo not drawn) [Example 67, 5-[2-(4-fluorophenoxy)ethyl]-2,11-dimethyl-5,6,7,8,9,10-hexahydro-7,10-epiminocyclohepta[b]indole] | 132 | 6.49
Cc1ccc2c(c1)c1c(n2-c2ccc3ccncc3c2)C[C@@H]2CC[C@H]1N2C [Example 68, (7S,10R)-5-isoquinolin-7-yl-2,11-dimethyl-5,6,7,8,9,10-hexahydro-7,10-epiminocyclohepta[b]indole] | 213 | 3.22
Cc1ccc2c(c1)c1c(n2S(=O)(=O)c2ccccc2)CC2CCC1N2C (stereo not drawn) [Example 69, 2,11-dimethyl-5-(phenylsulfonyl)-5,6,7,8,9,10-hexahydro-7,10-epiminocyclohepta[b]indole] | 161 | 4.43
